From US20260158009A1 (GENZYME CORPORATION, priority 2023, published 2026)
pIC50: −log10 of the molar value.

How the values were obtained:
U937 cells = assay: Cellular assay in U937 cells: activity of RIPK1 inhibitors on TNFα/zVAD.fmk-induced cell death (necroptosis), CellTiter 96 AQueous (MTS) readout; type: cell-based; conditions: Homo sapiens, U-937
Summary of the method: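 Necroptosis was measured by viable-cell MTS reduction (4 h, absorbance 490 nm) after overnight (18–24 h) 37° C culture. Cell suspensions of U937 cells carried TNFα (100 ng/ml) plus zVAD.fmk (50 μM) before compound was added. A 10-point curve (10 μM–0.26 nM or 1 μM–0.07 nM) was run in duplicate, normalised to the control lacking TNFα/zVAD.fmk.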

[1] = target: T1, hRIPK1 (aa 1-375) fusion protein (Homo sapiens, UniProt Q13546); assay: ADP-Glo kinase assay: catalytic activity of RIPK1 (autophosphorylation, conversion of ATP to ADP); type: biochemical
T1 construct: hRIPK1 (aa 1-375) fusion protein
T1 sequence (Q13546 1-375): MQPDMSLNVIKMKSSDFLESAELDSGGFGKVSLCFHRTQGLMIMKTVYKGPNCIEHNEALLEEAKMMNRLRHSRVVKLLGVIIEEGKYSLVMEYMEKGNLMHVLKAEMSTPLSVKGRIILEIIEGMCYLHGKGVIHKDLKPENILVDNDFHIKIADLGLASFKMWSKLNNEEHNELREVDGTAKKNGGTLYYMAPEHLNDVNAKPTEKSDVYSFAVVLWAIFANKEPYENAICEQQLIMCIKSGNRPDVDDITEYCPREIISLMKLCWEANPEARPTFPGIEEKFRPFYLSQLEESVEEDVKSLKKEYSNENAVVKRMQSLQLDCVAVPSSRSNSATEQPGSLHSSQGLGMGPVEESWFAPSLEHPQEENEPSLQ
Summary of the method: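 hRIPK1 (aa 1-375) fusion protein (3.6 μg/ml final) was preincubated 30 min at rt with compound (33300-1.69 nM, 1% DMSO), then 50 μM ATP was added for 240 min at rt. ADP from autophosphorylation was measured by ADP-Glo luminescence and curves fitted by nonlinear regression.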

Row | pIC50 [1] | SMILES | pIC50 (U937 cells)
1 | 7.68 | Cc1nn(C)cc1-c1cncc(C[C@H]2CC[C@H](C(=O)N3OCC[C@H]3c3cnccn3)CC2)c1 [compound 308, trans-[4-[[5-(1,3-dimethylpyrazol-4-yl)-3-pyridyl]methyl]cyclohexyl]-[(3S)-3-pyrazin-2-ylisoxazolidin-2-yl]methanone] | 7.33
2 | 7.74 | N#Cc1cc(F)cc([C@@H]2CCON2C(=O)[C@H]2CC[C@H](Cc3cncc(F)c3)CC2)c1 [compound 148, trans-3-fluoro-5-[(3S)-2-[4-[(5-fluoro-3-pyridyl)methyl]cyclohexanecarbonyl]isoxazolidin-3-yl]benzonitrile] | 8.40
3 | 7.49 | Cc1cc([C@@H]2CCON2C(=O)[C@H]2CC[C@H](Cn3cnc4c(F)cc(C#N)cc43)CC2)co1 [compound 38, trans-4-fluoro-1-((4-((S)-3-(5-methylfuran-3-yl)isoxazolidine-2-carbonyl)cyclohexyl)methyl)-1H-benzo[d]imidazole-6-carbonitrile] | 7.52
4 | 8.30 | NC(=O)c1cc(C[C@H]2CC[C@H](C(=O)N3OCC[C@H]3c3cc(F)cc(F)c3)CC2)ccc1F [compound 192, trans-5-[[4-[(3S)-3-(3,5-difluorophenyl)isoxazolidine-2-carbonyl]cyclohexyl]methyl]-2-fluoro-benzamide] | 8.52
5 | 7.68 | O=C([C@H]1CC[C@H](Cn2ncc3cc(F)ccc32)CC1)N1OCC[C@H]1c1cc(F)cc(F)c1 [compound 55, trans-((S)-3-(3,5-difluorophenyl)isoxazolidin-2-yl)(4-((5-fluoro-1H-indazol-1-yl)methyl)cyclohexyl)methanone] | 8.52
6 | 7.92 | Cc1nc2ccc(C[C@H]3CC[C@H](C(=O)N4OCC[C@H]4c4ccc(F)c(F)c4)CC3)nn2n1 [compound 310, trans-[(3S)-3-(3,4-difluorophenyl)isoxazolidin-2-yl]-[4-[(2-methyl-[1,2,4]triazolo[1,5-b]pyridazin-6-yl)methyl]cyclohexyl]methanone] | 7.66
7 | 7.54 | Cc1cc(-c2cncc(C[C@H]3CC[C@H](C(=O)N4OCC[C@H]4c4cnccn4)CC3)c2)n(C)n1 [compound 305, trans-[4-[[5-(2,5-dimethylpyrazol-3-yl)-3-pyridyl]methyl]cyclohexyl]-[(3S)-3-pyrazin-2-ylisoxazolidin-2-yl]methanone] | 7.37
8 | 7.89 | Cc1ccc(C[C@H]2CC[C@H](C(=O)N3OCC[C@H]3c3cc(F)cc(F)c3)CC2)cc1C(N)=O [compound 132, trans-5-[[4-[(3S)-3-(3,5-difluorophenyl)isoxazolidine-2-carbonyl]cyclohexyl]methyl]-2-methyl-benzamide] | 8.40
9 | 8.40 | CNC(=O)c1cc(F)cc(C[C@H]2CC[C@H](C(=O)N3OCC[C@H]3c3cc(F)cc(F)c3)CC2)c1 [compound 161, trans-3-[[4-[(3S)-3-(3,5-difluorophenyl)isoxazolidine-2-carbonyl]cyclohexyl]methyl]-5-fluoro-N-methyl-benzamide] | 9.00
10 | 7.82 | N#Cc1cc2cnn(C[C@H]3CC[C@H](C(=O)N4OCC[C@H]4c4cc(F)cc(F)c4)CC3)c2cc1F [compound 67, trans-1-((4-((S)-3-(3,5-difluorophenyl)isoxazolidine-2-carbonyl)cyclohexyl)methyl)-6-fluoro-1H-indazole-5-carbonitrile] | 8.70
11 | 7.72 | N#Cc1cc(F)cc([C@@H]2CCON2C(=O)[C@H]2CC[C@H](Cn3ncc4ccc(C#N)cc43)CC2)c1 [compound 28, trans-1-((4-((S)-3-(3-cyano-5-fluorophenyl)isoxazolidine-2-carbonyl)cyclohexyl)methyl)-1H-indazole-6-carbonitrile] | 8.52
12 | 7.96 | Cc1cn2nc(C[C@H]3CC[C@H](C(=O)N4OCC[C@H]4c4cc(F)cc(C#N)c4)CC3)cc(C)c2n1 [compound 290, trans-3-[(3S)-2-[4-[(2,8-dimethylimidazo[1,2-b]pyridazin-6-yl)methyl]cyclohexanecarbonyl]isoxazolidin-3-yl]-5-fluoro-benzonitrile] | 8.40
13 | 7.35 | N#Cc1cncc([C@@H]2CCON2C(=O)[C@H]2CC[C@H](Cc3ccc(C4(O)COC4)cc3)CC2)c1 [compound 183, trans-5-[(3S)-2-[4-[[4-(3-hydroxyoxetan-3-yl)phenyl]methyl]cyclohexanecarbonyl]isoxazolidin-3-yl]pyridine-3-carbonitrile] | 7.64
14 | 7.70 | N#Cc1cc(F)cc([C@@H]2CCON2C(=O)[C@H]2CC[C@H](Cn3ccc4cc(F)c(C#N)cc43)CC2)c1 [compound 22, trans-1-((4-((S)-3-(3-cyano-5-fluorophenyl)isoxazolidine-2-carbonyl)cyclohexyl)methyl)-5-fluoro-1H-indole-6-carbonitrile] | 8.70
15 | 7.32 | Cc1nc2c(F)cc(C[C@H]3CC[C@H](C(=O)N4OCC[C@H]4c4cnc(C)c(F)c4)CC3)cn2n1 [compound 327, trans-[(3S)-3-(5-fluoro-6-methyl-3-pyridyl)isoxazolidin-2-yl]-[4-[(8-fluoro-2-methyl-[1,2,4]triazolo[1,5-a]pyridin-6-yl)methyl]cyclohexyl]methanone] | 7.32
16 | 8.22 | N#Cc1cc(F)cc([C@@H]2CCON2C(=O)[C@H]2CC[C@H](Cn3ccc4ncc(OCCO)cc43)CC2)c1 [compound 153, trans-3-fluoro-5-[(3S)-2-[4-[[6-(2-hydroxyethoxy)pyrrolo[3,2-b]pyridin-1-yl]methyl]cyclohexanecarbonyl]isoxazolidin-3-yl]benzonitrile] | 8.52
17 | 7.35 | N#Cc1cc(F)cc([C@@H]2CCON2C(=O)[C@H]2CC[C@H](Cn3cnc4cc(C#N)ccc43)CC2)c1 [compound 5, trans-1-((4-((S)-3-(3-cyano-5-fluorophenyl)isoxazolidine-2-carbonyl)cyclohexyl)methyl)-1H-benzo[d]imidazole-5-carbonitrile] | 6.61
18 | 7.12 | Cc1ccc([C@@H]2CCON2C(=O)[C@H]2CC[C@H](Cc3ccc4nnc(C)n4c3C)CC2)cn1 [compound 376, [4-(3,5-Dimethyl-[1,2,4]triazolo[4,3-a]pyridin-6-ylmethyl)-cyclohexyl]-[(S)-3-(6-methyl-pyridin-3-yl)-isoxazolidin-2-yl]-methanone] | 7.05
19 | 7.89 | N#Cc1cc(F)cc([C@@H]2CCON2C(=O)[C@H]2CC[C@H](Cc3ccc(CO)c(F)c3)CC2)c1 [compound 266, trans-3-fluoro-5-[(3S)-2-[4-[[3-fluoro-4-(hydroxymethyl)phenyl]methyl]cyclohexanecarbonyl]isoxazolidin-3-yl]benzonitrile] | 9.00
20 | 7.82 | Cc1ccc([C@@H]2CCON2C(=O)[C@H]2CC[C@H](Cc3ccc(C)c(C(N)=O)c3)CC2)cc1 [compound 131, trans-2-methyl-5-[[4-[(3S)-3-(p-tolyl)isoxazolidine-2-carbonyl]cyclohexyl]methyl]benzamide] | 8.30
21 | 7.72 | O=C([C@H]1CC[C@H](Cc2ccc(C3(O)COC3)cc2)CC1)N1OCC[C@H]1c1cc(F)cc(F)c1 [compound 171, trans-[(3S)-3-(3,5-difluorophenyl)isoxazolidin-2-yl]-[4-[[4-(3-hydroxyoxetan-3-yl)phenyl]methyl]cyclohexyl]methanone] | 8.22
